The text below walks through data of ChEMBL document CHEMBL1151711, “Studies on quinones. Part 44: Novel angucyclinone N-heterocyclic analogues endowed with antitumoral activity” (Bioorg Med Chem, 2008).

In one assay the test system is MRC5. Kind of assay: Cytotoxicity against human MRC5 cells after 3 days by MTT assay. The assay is classed as cell-based. The note with it: MRC5, 72 h. (Tetrazolium dyes change colour on reduction, which living cells bring about.)
The subject of a further assay is J82. Briefly: Cytotoxicity against human J82 cells after 3 days by MTT assay. The settings on record: J82, 72 h. The assay is classed as functional, cell-based.
Another assay has as its system HL-60. Kind of assay: Cytotoxicity against human HL-60 cells after 3 days by MTT assay. The settings on record: HL-60, 72 h. The assay is classed as functional, cell-based.
In a further assay the test system is AGS. Kind of assay: Cytotoxicity against human AGS cells after 3 days by MTT assay. The assay is classed as functional, cell-based. The note with it: 72 h.
The next assay deals with SK-MES-1. Kind of assay: Cytotoxicity against human SK-MES-1 cells after 3 days by MTT assay. The note with it: SK-MES-1, 72 h. The assay is classed as functional, cell-based.

In the case of `CC1(C)CC(=O)c2c(ncc3c2C(=O)c2cccc(O)c2C3=O)C1`, the IC50 (as a rule, the concentration that gives 50% inhibition) in the assay on MRC5 stood at 6.5 µM; with J82, 3.9 µM; in the assay on HL-60, 2.3 µM; in the assay with AGS it was 11.6 µM; in the assay with SK-MES-1, 3.6 µM.

For `Cc1nc2c(c3c1C(=O)c1ccccc1C3=O)C(=O)CC(C)(C)C2`, the IC50 with MRC5 was found to be 15.9 µM; in the assay on J82, 18.9 µM; in the assay on HL-60 it was 17.5 µM; in the assay on AGS, 4.5 µM; with SK-MES-1, 13.5 µM.

Regarding `Cc1nc2c(c3c1C(=O)c1ccccc1C3=O)C(=O)CCC2`, the IC50 in the assay with MRC5 came out at 21.5 µM; in the assay with J82, 7.7 µM; with HL-60, 45.2 µM; with AGS it was 9.5 µM; with SK-MES-1 it was 11.9 µM.

Consider `Cc1nc2c(c3c1C(=O)c1c(O)cccc1C3=O)C(=O)CC(C)(C)C2`, for which the concentration for half-maximal inhibition (IC50) is 5.5 µM in the assay with MRC5; 15.7 µM in the assay on J82; 11.8 µM in the assay with HL-60; 7.4 µM with AGS; 4.6 µM in the assay on SK-MES-1.

Consider `Cn1c(=O)c2c3c(cnc2n(C)c1=O)C(=O)c1c(O)cccc1C3=O`, for which the IC50 stood at 6.8 µM with MRC5; 9.2 µM in the assay on J82; 15.9 µM in the assay on HL-60; 5.9 µM with AGS; 8.1 µM in the assay on SK-MES-1.

For the molecule `Cc1nc2c(c3c1C(=O)C=CC3=O)c(=O)n(C)c(=O)n2C`, the IC50 in the assay on MRC5 is 67.1 µM; with J82, 72.4 µM; with HL-60, 26.3 µM; in the assay on AGS, 50.3 µM; with SK-MES-1, 70.2 µM.

With `Cc1cnc2c(c1)C(=O)c1c(cnc3c1C(=O)CCC3)C2=O`, the concentration for half-maximal inhibition (IC50) in the assay with MRC5 stood at 0.73 µM; in the assay with J82 it was 1.8 µM; with HL-60 it was 2.4 µM; in the assay with AGS, 1.2 µM; with SK-MES-1, 1.7 µM.

With `Cc1nc2c(c3c1C(=O)c1c(O)cccc1C3=O)C(=O)CCC2`, the half-maximal inhibitory concentration (IC50) in the assay with MRC5 was determined as 17.3 µM; with J82, 17.5 µM; in the assay with HL-60, 23.9 µM; with AGS it was 4.5 µM; in the assay with SK-MES-1, 10.2 µM.

As for `O=C1c2cnc3c(c2C(=O)c2cccc(O)c21)C(=O)CCC3`, the IC50 in the assay with MRC5 was determined as 11.3 µM; in the assay with J82 it was 9.2 µM; in the assay with HL-60, 5.6 µM; with AGS, 1.6 µM; in the assay with SK-MES-1 it was 3.7 µM.

As for `Cc1nc2c(c3c1C(=O)c1c(O)cccc1C3=O)c(=O)n(C)c(=O)n2C`, the IC50 in the assay on MRC5 was greater than 100 µM; in the assay with J82 it was greater than 100 µM; in the assay on HL-60, greater than 100 µM; in the assay with AGS, 70 µM; with SK-MES-1 it was greater than 100 µM.

Regarding `Cc1nc2c(c3c1C(=O)c1ccccc1C3=O)c(=O)n(C)c(=O)n2C`, the half-inhibitory concentration (IC50) in the assay on MRC5 was greater than 100 µM; in the assay with J82, 24.9 µM; in the assay with HL-60 it was greater than 100 µM; in the assay on AGS it was 19.1 µM; in the assay with SK-MES-1, 5.2 µM.

As for `O=C1c2cnc3c(c2C(=O)c2cccc(O)c21)CCCC3`, the concentration for half-maximal inhibition (IC50) in the assay with MRC5 was determined as 63.6 µM; in the assay with J82, 20.5 µM; in the assay with HL-60 it was 45.8 µM; with AGS, 36.8 µM; in the assay with SK-MES-1, 36.8 µM.

`Cn1c(=O)c2c3c(cnc2n(C)c1=O)C(=O)c1ccccc1C3=O`: the IC50 amounted to 12.6 µM with MRC5; 8.7 µM in the assay with J82; 20.4 µM in the assay on HL-60; 3.5 µM in the assay with AGS; 8.9 µM with SK-MES-1.

With `CC1(C)CC(=O)c2c(ncc3c2C(=O)C=CC3=O)C1`, the IC50 with MRC5 is 39.9 µM; in the assay on J82, 95.3 µM; in the assay with HL-60, 43.6 µM; in the assay on AGS, 75.2 µM; in the assay on SK-MES-1, greater than 100 µM.

Consider `O=C1c2ccccc2C(=O)c2c1cnc1c2C(=O)CCC1`, for which the half-inhibitory concentration (IC50) in the assay on MRC5 is 41.3 µM; in the assay with J82, 62.6 µM; in the assay on HL-60 it was 73.2 µM; with AGS, 19 µM; in the assay on SK-MES-1, 51.6 µM.

Take `Cn1c(=O)c2c3c(cnc2n(C)c1=O)C(=O)C=CC3=O`: the IC50 in the assay with MRC5 worked out at 72.8 µM; with J82, 78.6 µM; with HL-60, 31.5 µM; in the assay on AGS, 82.1 µM; in the assay with SK-MES-1, 67.5 µM.

For `O=C1c2c(O)cccc2C(=O)c2c3c(cc(O)c21)CCCC3`, the IC50 is greater than 100 µM with MRC5; 69.9 µM with J82; greater than 100 µM in the assay with HL-60; 41.6 µM in the assay with AGS; 73.7 µM in the assay with SK-MES-1.

Consider `Cc1nc2c(c3c1C(=O)C=CC3=O)C(=O)CCC2`, for which the IC50 turned out to be 20.5 µM in the assay with MRC5; 5.6 µM with J82; 46.5 µM with HL-60; 22 µM in the assay on AGS; 3.5 µM in the assay on SK-MES-1.

In the case of `O=C1C=CC(=O)c2c1cnc1c2C(=O)CCC1`, the IC50 in the assay on MRC5 came out at 20.2 µM; in the assay with J82 it was 38.8 µM; in the assay on HL-60, 15.8 µM; in the assay on AGS, 19.4 µM; in the assay on SK-MES-1, 25.7 µM.
